Key:
human mGlu3 [1] = target: T1, human mGlu3 (Homo sapiens, UniProt Q14832)
human mGlu5 [2] = target: T2, human mGlu5 (Homo sapiens, UniProt P41594); assay: Calcium mobilization assay, mGlu5 PAM activity; assay type: cell-based; conditions: for decrease in mGlu5 potency versus comparator analog: 4n vs 4k, 4x vs 4c, 4z vs unsubstituted -CH2-O- linker, 20 vs piperazinone core; for mGlu5 activity in words: 4y vs 4k, 21a-c pyrazole unit modifications
Na channels = assay: Cardiovascular ion channel interaction, Na channel; conditions: read-out: Na channel IC50
[3] = High content cytotoxicity assay
[4] = Predicted rat hepatic clearance from microsomal CLint; assay type: in vitro ADME; conditions: predicted hepatic clearance based on microsomal CLint data
Toxicology rat MTD study = assay type: in vivo
[5] = Terminal unbound brain concentration in the AHL study; conditions: rat, in vivo, po, 10 mg/kg
Ca channels = assay: Cardiovascular ion channel interaction, Ca channel; conditions: read-out: Ca channel IC50
human mGlu3 [6] = target: T1, human mGlu3; assay: cell-based
human mGlu5 [7] = target: T2, human mGlu5; conditions: cited from earlier work

T2 sequence (P41594 21-1212): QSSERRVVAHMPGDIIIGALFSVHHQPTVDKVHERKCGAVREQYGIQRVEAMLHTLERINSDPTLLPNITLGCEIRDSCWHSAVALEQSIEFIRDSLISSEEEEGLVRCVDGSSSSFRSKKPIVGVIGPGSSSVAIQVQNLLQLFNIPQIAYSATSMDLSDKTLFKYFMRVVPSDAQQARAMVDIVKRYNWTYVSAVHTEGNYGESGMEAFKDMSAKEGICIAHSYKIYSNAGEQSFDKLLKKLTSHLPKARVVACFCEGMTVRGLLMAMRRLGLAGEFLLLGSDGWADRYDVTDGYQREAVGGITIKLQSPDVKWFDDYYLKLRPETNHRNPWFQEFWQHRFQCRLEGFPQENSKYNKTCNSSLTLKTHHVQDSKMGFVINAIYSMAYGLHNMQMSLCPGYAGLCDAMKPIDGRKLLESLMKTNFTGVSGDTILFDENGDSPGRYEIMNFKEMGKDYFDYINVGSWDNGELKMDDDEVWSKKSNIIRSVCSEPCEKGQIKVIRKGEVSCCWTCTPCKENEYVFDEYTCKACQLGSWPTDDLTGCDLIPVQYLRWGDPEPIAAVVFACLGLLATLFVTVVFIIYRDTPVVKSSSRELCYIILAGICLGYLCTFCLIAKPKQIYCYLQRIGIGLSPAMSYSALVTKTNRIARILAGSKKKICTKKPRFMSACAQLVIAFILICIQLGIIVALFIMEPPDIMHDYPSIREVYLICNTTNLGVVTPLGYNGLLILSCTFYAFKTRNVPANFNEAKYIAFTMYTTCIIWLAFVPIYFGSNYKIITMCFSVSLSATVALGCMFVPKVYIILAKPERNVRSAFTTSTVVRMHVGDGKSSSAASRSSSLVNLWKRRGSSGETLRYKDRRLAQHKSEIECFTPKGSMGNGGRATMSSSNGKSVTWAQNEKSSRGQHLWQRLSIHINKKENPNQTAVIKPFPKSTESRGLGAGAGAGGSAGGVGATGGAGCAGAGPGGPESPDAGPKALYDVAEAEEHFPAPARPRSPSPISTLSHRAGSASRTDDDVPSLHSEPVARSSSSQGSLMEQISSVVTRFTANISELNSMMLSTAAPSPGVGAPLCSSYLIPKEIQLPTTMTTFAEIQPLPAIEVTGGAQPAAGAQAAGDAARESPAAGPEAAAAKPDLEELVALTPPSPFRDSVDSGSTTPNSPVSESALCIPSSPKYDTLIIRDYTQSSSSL
T1 sequence (Q14832 23-879): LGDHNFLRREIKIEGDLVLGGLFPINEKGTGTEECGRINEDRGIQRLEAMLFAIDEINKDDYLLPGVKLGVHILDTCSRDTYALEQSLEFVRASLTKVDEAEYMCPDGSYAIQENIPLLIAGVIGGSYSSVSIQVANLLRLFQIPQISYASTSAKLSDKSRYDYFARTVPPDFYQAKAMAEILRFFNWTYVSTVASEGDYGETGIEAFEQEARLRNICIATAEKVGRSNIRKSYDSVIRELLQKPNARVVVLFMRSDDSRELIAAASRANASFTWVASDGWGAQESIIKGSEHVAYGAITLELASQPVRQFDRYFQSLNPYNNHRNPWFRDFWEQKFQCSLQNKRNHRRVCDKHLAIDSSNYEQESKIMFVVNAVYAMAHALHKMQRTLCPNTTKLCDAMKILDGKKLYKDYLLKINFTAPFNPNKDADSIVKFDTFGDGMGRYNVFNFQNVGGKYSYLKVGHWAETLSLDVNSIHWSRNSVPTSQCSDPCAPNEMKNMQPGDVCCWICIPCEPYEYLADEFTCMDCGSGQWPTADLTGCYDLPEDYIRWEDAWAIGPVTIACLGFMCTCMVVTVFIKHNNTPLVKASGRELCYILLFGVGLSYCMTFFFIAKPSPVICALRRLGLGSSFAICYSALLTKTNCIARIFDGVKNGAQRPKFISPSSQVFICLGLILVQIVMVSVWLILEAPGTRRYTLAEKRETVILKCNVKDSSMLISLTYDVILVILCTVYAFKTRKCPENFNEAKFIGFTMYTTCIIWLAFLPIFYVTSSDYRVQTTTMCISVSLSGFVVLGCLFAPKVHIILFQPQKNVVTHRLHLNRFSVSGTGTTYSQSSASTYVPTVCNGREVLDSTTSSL

For O=C1c2cc(COc3ccccc3)nn2CCN1c1ccc(F)cc1 [4c], the “extent of mGlu3 antagonism” value (human mGlu3 [1]) was “full antagonism” and the “pEC50 (±SEM)” value (human mGlu5 [2]; HEK293 cells expressing human mGlu5, average of three or more determinations) was 7.19 ± 0.02.

In the case of Cc1ccc(N2CCn3nc(COc4ccccc4)cc3C2=O)cc1 [4f], the “extent of mGlu3 antagonism” value (human mGlu3 [1]) is reported as “full antagonism”.

For O=C1c2cc(COc3ccccc3)nn2CCN1c1ccccn1 [4h], the “increased mGlu5 potency over the 3- and 4- pyridyl isomers (4i,j)” value (human mGlu5 [2]) was ~ 3 fold.

In the case of O=C1c2cc(COc3ccccc3)nn2CCN1c1ccc(F)cn1 [4k], the IC50 (Na channels) is reported as greater than 10 µM, the high content cytotoxicity [3] is reported as greater than 100 µM and the “Rat CLhep” value [4] is reported as 34.5 mL/min/kg. For the same compound, the “death of animals at the highest dose” value (Toxicology rat MTD study; 600 mg/kg p.o., rat MTD study) was 2/6, the “signs of CNS-related side-effects (compulsive behavior, pedaling movements of the forepaws, tremors)” value (Toxicology rat MTD study; rat MTD study 25, 75, 150, 300 and 600 mg/kg p.o.) was “starting at the lowest tested dose” and the concentration at 90 min [5] was 313 nM. The IC50 (Ca channels) was greater than 10 µM and the AMES result (AMES) was “benign profile”.

In the case of Cc1ccc(N2CCn3nc(COc4ccccc4)cc3C2=O)nc1 [4l], the EC50 (human mGlu3 [6]) is reported as greater than 10000 nM and the “functional selectivity for mGlu5 versus mGlu3 antagonist activity” value (human mGlu3 [1]) is reported as greater than 50 fold.

In the case of O=C1c2cc(COc3ccccc3)nn2CCN1c1ncc(F)cn1 [4n], the “decrease in mGlu5 potency versus comparator analog” value (human mGlu5 [2]) is reported as ~ 6 fold.

With O=C1c2cc(COc3ccc(F)cc3)nn2CCN1c1ccc(F)cc1 [4q] the “extent of mGlu3 antagonism” value (human mGlu3 [1]) was “full antagonism”.

In the case of O=C1c2cc(COc3ccccn3)nn2CCN1c1ccc(F)cc1 [4s], the “extent of mGlu3 antagonism” value (human mGlu3 [1]) is reported as “full antagonism”.

For O=C1c2cc(COc3cccc(F)c3)nn2CCN1c1ccc(F)cn1 [4w], the EC50 (human mGlu3 [6]) was 140 nM.

For O=C1c2cc(OCc3ccccc3)nn2CCN1c1ccc(F)cc1 [4x], the “Rat CLhep” value [4] was 34.6 mL/min/kg, the concentration at 90 min [5] was 376 nM and the “decrease in mGlu5 potency versus comparator analog” value (human mGlu5 [2]) was ~ 2.5 fold.

With O=C1c2cc(OCc3ccccc3)nn2CCN1c1cc(F)ccn1 [4y] the “mGlu5 activity in words” value (human mGlu5 [2]) was “complete loss of activity”.

In the case of CC(Oc1ccccc1)c1cc2n(n1)CCN(c1ccc(F)cc1)C2=O (stereo not drawn) [4z], the “decrease in mGlu5 potency versus comparator analog” value (human mGlu5 [2]) is reported as greater than 100 fold.

With O=C1c2nc(COc3ccccc3)nn2CCN1c1ccc(F)cc1 [21a] the “mGlu5 activity in words” value (human mGlu5 [2]) was “remarkable loss of mGlu5 potency”.

For Cc1c(COc2ccccc2)nn2c1C(=O)N(c1ccc(F)cc1)CC2 [21b], the “mGlu5 activity in words” value (human mGlu5 [2]) was “remarkable loss of mGlu5 potency”.

For O=C(c1ccc(F)cc1)N1CCc2oc(COc3ccccc3)nc2C1 [compound 1], the “glutamate CRC fold-shift (FS)” value (human mGlu5 [7]) is given as 11.

For O=C1c2cc(COc3ccccc3)nn2CCCN1c1ccc(F)cc1 [compound 20], the “decrease in mGlu5 potency versus comparator analog” value (human mGlu5 [2]) was ~ 3 fold.

Reference: paper PMC4835042 (Bioorganic & medicinal chemistry letters, 2015)
